The values below come from publication PMC3223730, “A nuclear magnetic resonance based approach to accurate functional annotation of putative enzymes in the methanogen Methanosarcina acetivorans” (BMC Genomics, 2011).

The target in one experiment is T1, MA3706 (Methanosarcina acetivorans, UniProt Q8TJS1).
T1 construct: gene MA_3706; removal not described), expressed in E. coli BL21(DE3) Rosetta, Ni-NTA purified
The experiment can be described thus: isothermal titration calorimetry. It counts as binding. To be noted: read-out: dissociation constant. (In general: Isothermal titration calorimetry measures the heat released or taken up as one component is titrated into another.)

The next experiment addresses T2, MA4265 (Methanosarcina acetivorans, UniProt Q8TI91).
T2 construct: gene MA_4265; removal not described), expressed in E. coli at 25°C, Ni-NTA purified
T2 sequence (Q8TI91 1-342): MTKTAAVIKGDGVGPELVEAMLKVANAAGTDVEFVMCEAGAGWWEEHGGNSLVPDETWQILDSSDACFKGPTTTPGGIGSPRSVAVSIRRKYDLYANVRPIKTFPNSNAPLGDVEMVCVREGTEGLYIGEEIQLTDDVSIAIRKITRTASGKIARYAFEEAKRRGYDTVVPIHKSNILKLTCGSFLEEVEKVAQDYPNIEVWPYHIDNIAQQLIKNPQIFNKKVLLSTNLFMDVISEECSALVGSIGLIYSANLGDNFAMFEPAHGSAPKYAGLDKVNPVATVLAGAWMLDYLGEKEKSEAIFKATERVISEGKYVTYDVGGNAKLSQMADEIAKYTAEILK
The experiment is described as follows: waterLOGSY 1H NMR. It counts as binding. The settings on record: 300 μM ligand, 30 μM protein; 50 mM sodium phosphate, 100 mM NaCl, pH 7.0; 5 or 25 °C.

T1 sequence (Q8TJS1 whole entry): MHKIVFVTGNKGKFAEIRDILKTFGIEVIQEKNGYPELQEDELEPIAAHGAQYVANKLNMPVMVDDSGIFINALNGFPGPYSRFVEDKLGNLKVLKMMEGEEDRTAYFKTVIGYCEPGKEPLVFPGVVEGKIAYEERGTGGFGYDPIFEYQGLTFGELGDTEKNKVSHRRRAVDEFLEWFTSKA

`O=P(O)(O)OP(=O)(O)OP(=O)(O)OC[C@H]1O[C@@H](n2cnc3c(O)ncnc32)[C@H](O)[C@@H]1O` [ITP]: on MA3706, the Kd worked out at 7.8 µM.
On to `O=C(O)C[C@H](C(=O)O)[C@@H](O)C(=O)O` [isocitrate], for which the “waterLOGSY 1H NMR” value on MA4265 is “Only isocitrate binds to MA4265 under the conditions used”.
